One test has as its target PI3Kgamma (Homo sapiens, UniProt P48736). The test can be described thus: Biochemical PI3Kgamma (TR-FRET Adapta Universal Kinase Assay). Conditions: mean of n measurements, read-out: PIK3g/ IC50. The protocol:
(§1) Test compounds were dissolved in DMSO (10 mM) and transferred into 1.4 mL flat bottom or V-shaped Matrix tubes carrying a unique 2D matrix chip by individual Novartis compound hubs. The numbers of these chips were distinctively linked to Novartis Pharma Numbers. The stock solutions were stored at −20° C. if not used immediately. For the test procedure the vials were defrosted and identified by a scanner whereby a working sheet was generated that guided the subsequent working steps.
(§2) Compounds were either manually diluted in DMSO for individual experiments (96 wells enabling 10 cpds at 8 (single points) concentrations) as described in or prepared as described below if tested for profiling in 384-wells. This format enabled the assay of maximally 40 individual test compounds at 8 concentrations (single points) including 4 reference compounds. The dilution protocol included the production of “pre-dilution plates”, “master plates” and “assay plates”.
(§3) 96 polypropylene well plates were used as pre-dilution plates. A total of 4 pre-dilution plates were prepared including 10 test compounds each on the plate positions A1-A10, one standard compound at A11 and one DMSO control at A12. Programs have been written to run these pipetting steps on the HamiltonSTAR robots.
100 μL of individual compound dilutions including standard compound and controls of the 4 “pre-dilution plates” were transferred into a 384 “master plate” including the following concentrations 1,820, 564, 182, 54.6, 18.2, 5.46, 1.82 and 0.546 μM, respectively in 90% DMSO.
(§4) Identical “assay plates” were then prepared by pipetting 50 nL each of compound dilutions of the “master plates” into 384-well “assay plates”. The compounds were mixed with 4.5 μL of assays components plus 4.5 μL enzyme corresponding to a 1:181 dilution enabling the final concentration of 10, 3.0, 1.0, 0.3, 0.1, 0.03, 0.01 and 0.003 μM, respectively. The preparation of the “master plates” was handled by the Matrix PlateMate Plus robot and replication of “assay plates” by the HummingBird robot.
The TR-FRET Adapta™ Universal Kinase Assay Kit was purchased from Invitrogen Corporation (Carlsbad/CA, USA) (Cat. No. PV5099). The kit contains the following reagents: Adapta Eu-anti-ADP Antibody (Europium labeled anti-ADP antibody in HEPES buffered saline, Cat. No. PV5097), Alexa Fluor® 647-labeled ADP tracer (Alexa Fluor® 647-labeled ADP tracer in HEPES buffered saline, Cat. No. PV5098), proprietary TR-FRET dilution buffer pH 7.5 (Cat. No. PV3574).
PIK3CD substrate Phosphatidylinositol was obtained from Invitrogen (vesicules consisting of 2 mM PI in 50 mM HEPES pH7.5; Cat. No. PV5371). PIK3CG substrate Phosphatidylinositol-4,5-bisphosphate (PIP(4,5)2 was obtained from Invitrogen (PIP2:PS large unilamellar vesicules consisting of 1 mM PIP2: 19 mM PS in 50 mM HEPES pH7.5, 3 mM MgCl2, 1 mM EGTA; Cat. No. PV5100).
Time-Resolved Fluorescence Resonance Energy Transfer (TR-FRET) is a technology based on energy transfer between two adjacent dyes, from an excited electron in one dye (the donor) to an electron of an adjacent dye (the acceptor) through resonance, then released as a photon. This energy transfer is detected by an increase in the fluorescence emission of the acceptor, and a decrease in the fluorescence emission of the donor. TR-FRET assays for protein kinases use a long-lifetime lanthanide Terbium or Europium chelates as the donor species which overcome interference from compound autofluorescence or light scatter from precipitated compounds, by introducing a delay after excitation by a flashlamp excitation source. Results are often expressed as a ratio of the intensities of the acceptor and donor fluorophores. The ratiometric nature of such a value corrects for differences in assay volumes between wells, as well as corrects for quenching effects due to colored compounds. The Adapta™ assay can be divided into two phases: a kinase reaction phase and an ADP detection phase. […]
(TR-FRET usually uses a lanthanide donor and a delayed reading to cut background.)

For a further test, the target named is T1, human PI3Kβ (Homo sapiens, UniProt P42338).
T1 construct: made in house
T1 sequence (P42338 2-1070 limits assumed): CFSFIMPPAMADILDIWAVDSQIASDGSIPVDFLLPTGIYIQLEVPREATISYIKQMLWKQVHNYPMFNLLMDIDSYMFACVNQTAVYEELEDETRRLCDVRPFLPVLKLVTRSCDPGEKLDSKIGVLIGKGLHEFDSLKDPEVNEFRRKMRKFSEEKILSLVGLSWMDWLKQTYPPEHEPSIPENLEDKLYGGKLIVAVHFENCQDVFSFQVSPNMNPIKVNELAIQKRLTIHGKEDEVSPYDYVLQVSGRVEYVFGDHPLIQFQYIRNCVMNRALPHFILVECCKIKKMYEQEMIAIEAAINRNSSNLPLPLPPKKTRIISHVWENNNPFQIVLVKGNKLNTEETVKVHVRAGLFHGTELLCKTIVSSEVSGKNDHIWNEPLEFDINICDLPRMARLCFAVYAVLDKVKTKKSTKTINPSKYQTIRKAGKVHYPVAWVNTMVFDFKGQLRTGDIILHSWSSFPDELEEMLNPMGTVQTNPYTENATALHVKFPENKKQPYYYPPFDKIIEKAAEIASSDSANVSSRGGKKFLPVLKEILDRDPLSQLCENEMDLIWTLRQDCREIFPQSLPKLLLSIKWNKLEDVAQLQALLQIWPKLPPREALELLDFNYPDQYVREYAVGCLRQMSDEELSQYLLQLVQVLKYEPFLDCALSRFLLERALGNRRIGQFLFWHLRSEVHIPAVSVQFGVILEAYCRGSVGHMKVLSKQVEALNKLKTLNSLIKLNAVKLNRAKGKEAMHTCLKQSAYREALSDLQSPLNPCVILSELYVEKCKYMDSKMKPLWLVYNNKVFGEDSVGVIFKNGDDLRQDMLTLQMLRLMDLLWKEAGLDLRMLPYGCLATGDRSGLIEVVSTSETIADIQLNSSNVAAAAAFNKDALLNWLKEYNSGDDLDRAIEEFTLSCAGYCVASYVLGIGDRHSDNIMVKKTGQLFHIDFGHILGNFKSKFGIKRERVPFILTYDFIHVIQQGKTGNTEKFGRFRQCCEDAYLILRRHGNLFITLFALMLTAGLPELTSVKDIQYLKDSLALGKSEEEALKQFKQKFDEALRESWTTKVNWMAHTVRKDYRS
The test can be described thus: Biochemical PI3Kbeta (KinaseGlo luminescent kinase assay). As to conditions: 1 μM ATP, mean of n measurements, read-out: PI3Kb/ IC50. Here is the method: as §1, §2, §3, §4
Catalytically active human PI3Kα, PI3Kβ, PI3Kδ, and mTOR were cloned, expressed and purified as described (Maira S M, Stauffer F, Brueggen J, Furet P, Schnell C, Fritsch C, Brachmann S, Chène P, de Pover A, Schoemaker K, Fabbro D, Gabriel D, Simonen M, Murphy L, Finan P, Sellers W, García-Echeverría C (2008), Mol Cancer Ther. 7:1851-63 and Maira S M, Pecchi S, Brueggen J, Huh K, Schnell C, Fritsch C, Nagel T, Wiesmann M, Brachmann S, Dorsch M, Chène P, Schoemaker K, De Pover A, Menezes D, Fabbro D, Sellers W, García-Echeverría C, Voliva C F (2011), Mol. Cancer Ther. accepted).
The luminescence-based ATP detection reagent KinaseGlo was obtained from Promega, (Cat. No. V6714, Lot No. 236161) through Catalys, Wallisellen, Switzerland. (L-alpha-phosphatidylinositol (PI), Liver, Bovine) were obtained from Avanti Polar Lipid (Cat. No. 840042C, Lot#LPI-274), Phosphatidylinositol-4,5-bisphosphate (PIP(4,5)2 (Avanti, Cat. No. 840046×) or L-α-phosphatidylinositol (PI) was obtained from Avanti Polar Lipid (Cat. No. 840042C, Lot#LPI-274). L-α-Phosphatidylserine (PS) was from Avanti Polar Lipid (Cat. No. 840032C), n-OctylGlucoside Avanti Polar Lipid (Cat. No. 10634425001). Luminescence is a well established readout to determine ATP concentrations and can thus be used to follow the activity of many kinases regardless of their substrate. The Kinase Glo Luminescent Kinase Assay (Promega, Madison/Wis., USA) is a homogeneous HTS method of measuring kinase activity by quantifying the amount of ATP remaining in solution following a kinase reaction.
50 nL of compound dilutions were dispensed onto black 384-well low volume Non Binding Styrene (NBS) plates (Costar Cat. No. NBS#3676) as described in section 8.2. L-α-phosphatidylinositol (PI), provided as 10 mg/ml solution in methanol, was transferred into a glass tube and dried under nitrogen beam. It was then resuspended in 3% OctylGlucoside by vortexing and stored at 4° C. 5 μL of a mix of PI/OG with the PI3Ka and Pi3Kb subtypes were added. Kinase reactions were started by addition of 5 μl of ATP-mix containing in a final volume 10 μL 10 mM TRIS-HCl pH 7.5, 3 mM MgCl2, 50 mM NaCl, 0.05% CHAPS, 1 mM DTT and 1 μM ATP, and occurred at room temperature.

Chain of PI3Kgamma (P48736 whole entry, species assumed): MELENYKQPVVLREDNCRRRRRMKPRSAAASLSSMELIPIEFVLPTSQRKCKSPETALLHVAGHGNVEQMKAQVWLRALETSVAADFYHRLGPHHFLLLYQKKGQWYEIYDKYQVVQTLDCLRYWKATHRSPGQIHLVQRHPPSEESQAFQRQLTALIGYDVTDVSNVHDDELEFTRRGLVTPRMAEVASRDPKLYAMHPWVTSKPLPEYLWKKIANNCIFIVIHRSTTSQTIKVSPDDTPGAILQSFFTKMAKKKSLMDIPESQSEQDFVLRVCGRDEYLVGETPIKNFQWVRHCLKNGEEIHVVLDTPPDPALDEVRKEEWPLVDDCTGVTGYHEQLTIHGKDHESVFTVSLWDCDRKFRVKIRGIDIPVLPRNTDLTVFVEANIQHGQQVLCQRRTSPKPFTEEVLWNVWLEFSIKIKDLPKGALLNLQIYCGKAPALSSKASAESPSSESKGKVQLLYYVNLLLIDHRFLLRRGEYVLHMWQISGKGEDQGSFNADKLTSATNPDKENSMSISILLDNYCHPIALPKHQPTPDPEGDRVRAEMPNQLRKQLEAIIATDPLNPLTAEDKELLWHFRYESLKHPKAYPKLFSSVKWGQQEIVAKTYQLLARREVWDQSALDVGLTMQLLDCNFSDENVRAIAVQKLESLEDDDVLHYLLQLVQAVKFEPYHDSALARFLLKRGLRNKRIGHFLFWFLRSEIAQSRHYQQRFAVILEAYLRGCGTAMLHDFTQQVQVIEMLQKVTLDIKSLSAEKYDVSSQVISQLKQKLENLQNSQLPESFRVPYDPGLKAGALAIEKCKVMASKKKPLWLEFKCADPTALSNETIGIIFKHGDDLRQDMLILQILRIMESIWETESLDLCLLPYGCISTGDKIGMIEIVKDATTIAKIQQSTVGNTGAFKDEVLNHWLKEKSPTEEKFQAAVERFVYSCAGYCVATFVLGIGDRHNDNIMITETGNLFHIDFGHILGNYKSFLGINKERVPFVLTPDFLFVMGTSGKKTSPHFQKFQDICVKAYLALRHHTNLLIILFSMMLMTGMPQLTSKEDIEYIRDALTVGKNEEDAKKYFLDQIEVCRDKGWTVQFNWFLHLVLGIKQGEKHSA

Turning to `C[C@H]1COCCN1c1nc(-c2cnc(N)nc2C(F)(F)F)cc(N2C(=O)OC[C@@H]2C)n1` [Example 13, (S)-3-[2′-Amino-2-((S)-3-methyl-morpholin-4-yl)-4′-trifluoromethyl-[4,5′]bipyrimidinyl-6-yl]-4-methyl-oxazolidin-2-one], the IC50 at PI3Kgamma was found to be 386 nM; on human PI3Kβ it was 146 nM.
For `Nc1ncc(-c2cc(N3C[C@@H](CO)OC3=O)nc(N3CCOCC3)n2)c(C(F)(F)F)n1` [Example 14, (S)-3-(2′-Amino-2-morpholin-4-yl-4′-trifluoromethyl-[4,5′]bipyrimidinyl-6-yl)-5-hydroxymethyl-oxazolidin-2-one], in that order: 1230 nM and 18 nM.
For `C[C@H]1[C@H](CO)OC(=O)N1c1cc(-c2cnc(N)nc2C(F)(F)F)nc(N2CCOCC2)n1` [Example 15, (4S,5R)-3-(2′-Amino-2-morpholin-4-yl-4′-trifluoromethyl-[4,5′]bipyrimidinyl-6-yl)-5-hydroxymethyl-4-methyl-oxazolidin-2-one], in that order: 338 nM and 21 nM.
The corresponding values for `C[C@H]1CN(c2cc(-c3cnc(N)nc3C(F)(F)F)nc(N3CCOCC3)n2)C(=O)O1` [Example 16, (S)-3-(2′-Amino-2-morpholin-4-yl-4′-trifluoromethyl-[4,5′]bipyrimidinyl-6-yl)-5-methyl-oxazolidin-2-one] are 770 nM and 20 nM.
On to `[2H]C1([2H])OC([2H])([2H])C([2H])([2H])N(c2nc(-c3cnc(N)nc3C(F)(F)F)cc(N3C(=O)OC[C@@H]3C)n2)C1([2H])[2H]` [Example 17, (S)-3-(2′-amino-2-D8-morpholino-4′-(trifluoromethyl)-[4,5′-bipyrimidin]-6-yl)-4-methyloxazolidin-2-one], for which the IC50 was 328 nM at PI3Kgamma and 7 nM at human PI3Kβ.
For the molecule `C[C@H]1OC(=O)N(c2cc(-c3cnc(N)nc3C(F)(F)F)nc(N3CCOCC3)n2)[C@H]1CO` [Example 18, (4S,5R)-3-(2′-Amino-2-morpholin-4-yl-4′-trifluoromethyl-[4,5′]bipyrimidinyl-6-yl)-4-hydroxymethyl-5-methyl-oxazolidin-2-one], the IC50 came out at 253 nM at PI3Kgamma and 4 nM at human PI3Kβ.
On to `C[C@H]1[C@@H](CO)OC(=O)N1c1cc(-c2cnc(N)nc2C(F)(F)F)nc(N2CCOCC2)n1` [Example 19, (4S,5S)-3-(2′-Amino-2-morpholin-4-yl-4′-trifluoromethyl-[4,5′]bipyrimidinyl-6-yl)-5-hydroxymethyl-4-methyl-oxazolidin-2-one], for which the results for the IC50 at PI3Kgamma and on human PI3Kβ were 184 nM and 5 nM, respectively.
For `Nc1ncc(-c2cc(N3C[C@H](CO)OC3=O)nc(N3CCOCC3)n2)c(C(F)(F)F)n1` [Example 20, (R)-3-(2′-Amino-2-morpholin-4-yl-4′-trifluoromethyl-[4,5′]bipyrimidinyl-6-yl)-5-hydroxymethyl-oxazolidin-2-one], the values for the IC50 on PI3Kgamma and on human PI3Kβ were 601 nM and 11 nM, respectively.
The corresponding values for `Nc1ncc(-c2cc(N3C(=O)O[C@H]4COC[C@H]43)nc(N3CCOCC3)n2)c(C(F)(F)F)n1` [Example 21, (3aR,6aR)-3-(2′-amino-2-morpholino-4′-(trifluoromethyl)-[4,5′-bipyrimidin]-6-yl)-tetrahydrofuro[3,4-d]oxazol-2(3H)-one] are 370 nM and 35 nM.
Regarding `C[C@H]1[C@@H](CCO)OC(=O)N1c1cc(-c2cnc(N)nc2C(F)(F)F)nc(N2CCOCC2)n1` [Example 23, (4S,5R)-3-(2′-Amino-2-morpholino-4′-(trifluoromethyl)-[4,5′-bipyrimidin]-6-yl)-5-(2-hydroxyethyl)-4-methyloxazolidin-2-one], the IC50 at PI3Kgamma amounted to 207 nM; at human PI3Kβ, 11 nM.

Source of the values: patent US8865894B2, “Oxazolidin-2-one compounds and uses thereof” (Novartis AG, priority 2012, dated 2014).
